In patent US11584732B2, “Methods of treatment using 4-(3-cyanophenyl)-6-pyridinylpyrimidine mGlu5 modulators” (Heptares Therapeutics Limited, priority 2013, dated 2023):

Tested on: CD-1 mice
Experiment: In vivo efficacy test - marble burying
Set-up: species or system mouse
Conditions: male CD-1 mice, po, 30 min prior to test; at a dose of 10 and 30 mg/kg versus vehicle group

N#Cc1cc(Cl)cc(-c2cc(-c3ccc(F)cn3)ncn2)c1 [Example 17, 3-chloro-5-[6-(5-fluoropyridin-2-yl)pyrimidin-4-yl]benzonitrile]
number of marbles buried: statistically significant decrease
